From patent publication US20260240871A1, “PHARMACEUTICAL COMPOSITION FOR PREVENTION OR TREATMENT OF AGE-RELATED MUSCULOSKELETAL DISORDERS” (SEOUL NATIONAL UNIVERSITY R&DB FOUNDATION, priority 2023, published 2026)

Tests used:
[1] = test system: DNA damage-induced senescent cells (SEN) and oncogene-induced senescent cells (SEN (OIS)) of human diploid fibroblasts (IMR90, BJ); assay: SASP factor and senescence marker gene expression (qRT-PCR) in senescent cell models; assay type: cell-based; settings: for expression of CDKN2A or CDKN1A: senescent cells; for expression of SASP genes (IL1A, IL1B): senescent cells (SEN), cholesterol depletion, cholesterol stimulation or lovastatin treatment
Description: (§1) DNA damage-induced senescence was induced in human diploid fibroblasts (IMR90, BJ) by treatment with ionizing radiation (12 Gy) or bleomycin (10 μg/ml, for 24 hours). Specifically, IMR90 and BJ cells expressing hTERT (DNA damage-induced senescence; SEN), IMR90 cells co-expressing hTERT and H-RasV12 [oncogene-induced senescence; SEN (OIS)], and replication-exhausted [replicative senescent cells; SEN (REP)] IMR90 cells were prepared. Normal proliferating cells (PRO) were used as the control.
To investigate the functional consequences of age-related changes in cholesterol levels, cellular cholesterol was depleted using methyl-β-cyclodextrin (MβCD), and multiple senescence markers were examined during DNA damage-induced aging, including senescence-associated β-galactosidase (SA-β-Gal) activity, cell cycle arrest, and expression of senescence-associated secretory phenotype (SASP) factors.
To specifically confirm the effect of increased expression of lysosomal ABCA1 on SASP activity, experiments were conducted using probucol, an ABCA1 modulator that has been reported to limit its localization to intracellular compartments including lysosomes, and glyburide, a broad-spectrum inhibitor of the ABC transport protein family that promotes channel closure of ABC transporters. The prepared senescent cell models were treated with probucol (10 μM) and/or glyburide (75 μM), and immunoblotting analysis was performed on lysosome immunoprecipitates (LysoIP).

[2] = test system: male mice subjected to DMM surgery (post-traumatic osteoarthritis); assay: post-traumatic osteoarthritis progression after DMM surgery, intra-articular injection; assay type: in vivo, mouse; settings: for osteoarthritis progression / cartilage destruction in knee joints (Safranin O staining) / expression levels of SASP factors (IL6, MMP13) and senescence markers (p16, nuclear HMGB1) / osteoarthritis-related pain symptoms / pain indicators: intra-articular; for osteoarthritis progression / cartilage destruction in knee joints (Safranin O staining): probucol 200 μM 10 μl weekly for 6 weeks, hydrogel with 3 mM glyburide 10 μl every 10 days for 10 weeks; for expression levels of SASP factors (IL6, MMP13) and senescence markers (p16, nuclear HMGB1) / osteoarthritis-related pain symptoms / pain indicators: probucol 200 μM weekly for 6 weeks, 3 mM glyburide hydrogel every 10 days for 10 weeks
Description: In the case of mice, male (C57BL/6J) mice were used since estrogen in female mice may influence osteoarthritis progression and serve as a confounding factor. Post-traumatic osteoarthritis was induced in 12-week-old male mice by destabilization of the medial meniscus (DMM) surgery. To investigate the role of lysosomal cholesterol partitioning regulated by ABCA1 in age-related inflammation in vivo, ABCA1 modulators were administered to male mice subjected to DMM surgery, and their effects on the progression of post-traumatic osteoarthritis were observed. Male mice subjected to either DMM surgery or sham surgery were intra-articularly injected with 10 μl of probucol (200 μM) dissolved in DMSO once a week for 6 weeks, or with 10 μl of PBS-suspended hydrogel containing 3 mM glyburide (PBS:hydrogel=1:1) every 10 days for 10 weeks. After the treatment period, the mice were sacrificed.

lysosomal ABCA1 = biological target: T1, lysosomal ABCA1 (Homo sapiens, UniProt O95477); assay: immunoblotting of lysosome immunoprecipitates (LysoIP) in senescent cells; assay type: cell-based; settings: senescent cells (SEN); probucol 10 μM, glyburide 75 μM
T1 construct: endogenous ABCA1 was abundantly present in lysosomes; endogenous in cells; host or cells: senescent human diploid fibroblasts (IMR90, BJ; hTERT-expressing, DNA damage-induced senescence)
Description: as §1, with “control. It was analyzed how ABCA1, which mediates cholesterol transport at the plasma membrane, is involved in cholesterol accumulation. […] The prepared senescent cell models were treated with probucol (10 μM) and/or glyburide (75 μM), and immunoblotting analysis was performed on lysosome immunoprecipitates (LysoIP).” for “control.”

[3] = test system: senescence-induced cells (IMR90, BJ); assay: cholesterol measurement (Filipin staining, enzymatic measurement) in senescent cells; assay type: cell-based, human
Description: as §1, with “control. […] The prepared senescent cell models were treated with probucol (10 μM) and/or glyburide (75 μM), and immunoblotting analysis was performed on lysosome immunoprecipitates (LysoIP).” for “control.”

[4] = test system: mouse primary cultured chondrocytes (SEN); assay: SASP regulation in senescent mouse primary cultured chondrocytes (SEN); assay type: cell-based; settings: probucol 10 μM, glyburide 75 μM, lovastatin 2 μM
Description: Mouse primary cultured chondrocytes were isolated from the femoral condyle and tibial plateau of 5-day-old ICR mice.
The ABCA1-deficient mouse primary chondrocyte model was prepared using siRNAs of SEQ ID NOs: 5 to 8. • ABCA1 siRNA #1: SEQ ID NO. 5 • ABCA1 siRNA #2: SEQ ID NO. 6 • ABCA1 siRNA #3: SEQ ID NO. 7 • ABCA1 siRNA #4: SEQ ID NO. 8
Senescence of chondrocytes promotes age-related musculoskeletal disorders. The correlation between cholesterol metabolism and ABCA1 was analyzed in a DNA damage-induced aging model (SEN) of mouse primary cultured chondrocytes isolated from the femoral condyles and tibial plateaus of 5-day-old ICR mice.
When ABCA1 was depleted in mouse primary cultured chondrocytes (SEN), the expression of SASP genes, including Mmp3, Mmp13 and Cxcl1, was suppressed, while the expression of Cdkn2a remained unchanged (FIG. 11B). […] Induction of cholesterol depletion inhibited the sustained activation pattern of mTORC1 (FIG. 11D), which was consistent with the results from the senescent cell model (in vitro) in Example 1. Therefore, it was confirmed that the lysosomal ABCA1 gene is a major factor in SASP regulation in vivo.

mTORC1 = mTORC1 activity in senescent cells; assay type: cell-based, human
Description: as §1, with “control. […] The prepared senescent cell models were treated with probucol (10 μM) and/or glyburide (75 μM), and immunoblotting analysis was performed on lysosome immunoprecipitates (LysoIP).” for “control.”

[5] = SEN and SEN (OIS), glyburide 75 μM
[6] = intra-articular probucol 200 μM weekly for 6 weeks
[7] = DNA damage-induced senescent cells (SEN) lacking ABCA1, probucol 10 μM

T1 sequence (O95477 whole entry): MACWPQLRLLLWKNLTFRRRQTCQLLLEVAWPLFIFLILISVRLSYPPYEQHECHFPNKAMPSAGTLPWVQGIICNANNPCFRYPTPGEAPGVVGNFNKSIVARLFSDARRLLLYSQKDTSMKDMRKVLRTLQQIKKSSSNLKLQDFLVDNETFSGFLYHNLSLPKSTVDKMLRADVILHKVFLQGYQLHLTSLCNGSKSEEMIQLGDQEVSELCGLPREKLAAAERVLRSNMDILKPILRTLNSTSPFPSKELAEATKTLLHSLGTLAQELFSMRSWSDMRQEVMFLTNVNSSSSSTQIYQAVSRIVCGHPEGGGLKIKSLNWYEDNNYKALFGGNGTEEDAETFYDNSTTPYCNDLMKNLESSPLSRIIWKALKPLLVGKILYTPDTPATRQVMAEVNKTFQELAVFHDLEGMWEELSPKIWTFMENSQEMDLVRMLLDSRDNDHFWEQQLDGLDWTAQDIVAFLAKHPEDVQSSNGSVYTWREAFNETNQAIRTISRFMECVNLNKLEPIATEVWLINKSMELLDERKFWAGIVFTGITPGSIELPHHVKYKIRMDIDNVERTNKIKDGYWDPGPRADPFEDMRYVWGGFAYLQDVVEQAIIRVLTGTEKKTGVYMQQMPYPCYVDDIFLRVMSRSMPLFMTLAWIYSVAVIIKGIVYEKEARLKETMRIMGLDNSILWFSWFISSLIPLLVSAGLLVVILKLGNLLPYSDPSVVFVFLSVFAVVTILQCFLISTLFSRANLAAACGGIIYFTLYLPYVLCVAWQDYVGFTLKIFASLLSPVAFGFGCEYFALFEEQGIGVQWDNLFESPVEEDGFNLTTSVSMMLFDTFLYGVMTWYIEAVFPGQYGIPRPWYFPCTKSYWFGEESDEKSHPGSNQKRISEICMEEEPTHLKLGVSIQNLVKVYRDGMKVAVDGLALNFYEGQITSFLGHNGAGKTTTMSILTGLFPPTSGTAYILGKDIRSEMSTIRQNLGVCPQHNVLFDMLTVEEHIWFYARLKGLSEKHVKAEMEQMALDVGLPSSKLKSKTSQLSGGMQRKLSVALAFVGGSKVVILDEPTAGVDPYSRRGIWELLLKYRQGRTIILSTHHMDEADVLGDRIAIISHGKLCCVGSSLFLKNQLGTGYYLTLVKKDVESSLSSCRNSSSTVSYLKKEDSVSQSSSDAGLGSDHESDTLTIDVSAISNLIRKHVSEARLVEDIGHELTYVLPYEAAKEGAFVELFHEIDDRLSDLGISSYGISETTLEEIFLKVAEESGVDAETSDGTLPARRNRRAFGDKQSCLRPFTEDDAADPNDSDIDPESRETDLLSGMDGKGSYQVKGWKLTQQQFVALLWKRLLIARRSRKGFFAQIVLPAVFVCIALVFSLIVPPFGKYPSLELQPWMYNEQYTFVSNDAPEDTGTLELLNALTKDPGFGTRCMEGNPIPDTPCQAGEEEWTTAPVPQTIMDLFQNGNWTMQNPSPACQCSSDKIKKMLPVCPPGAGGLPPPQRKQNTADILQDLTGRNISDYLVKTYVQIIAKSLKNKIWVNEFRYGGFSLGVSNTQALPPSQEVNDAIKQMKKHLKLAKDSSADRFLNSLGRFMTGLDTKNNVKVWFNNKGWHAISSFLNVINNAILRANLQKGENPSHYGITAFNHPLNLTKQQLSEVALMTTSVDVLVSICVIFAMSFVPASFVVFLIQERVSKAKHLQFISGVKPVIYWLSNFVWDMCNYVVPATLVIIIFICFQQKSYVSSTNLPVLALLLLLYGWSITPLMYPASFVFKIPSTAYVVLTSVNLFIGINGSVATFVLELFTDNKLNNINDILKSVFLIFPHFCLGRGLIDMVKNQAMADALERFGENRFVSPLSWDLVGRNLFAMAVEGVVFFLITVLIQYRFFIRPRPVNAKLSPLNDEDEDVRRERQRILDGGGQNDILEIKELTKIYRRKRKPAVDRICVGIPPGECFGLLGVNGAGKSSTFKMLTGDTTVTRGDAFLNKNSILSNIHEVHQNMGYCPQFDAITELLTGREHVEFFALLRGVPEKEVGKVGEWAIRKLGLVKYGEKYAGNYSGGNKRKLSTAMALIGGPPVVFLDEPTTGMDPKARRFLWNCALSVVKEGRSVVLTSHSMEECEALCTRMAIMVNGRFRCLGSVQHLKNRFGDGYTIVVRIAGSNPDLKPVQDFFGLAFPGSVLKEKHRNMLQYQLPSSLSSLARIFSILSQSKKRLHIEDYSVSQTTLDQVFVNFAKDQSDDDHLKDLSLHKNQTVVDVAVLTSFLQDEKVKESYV

Row | Molecule | expression of CDKN2A or CDKN1A [1] | expression of SASP genes (IL1A, IL1B) [1] | osteoarthritis progression / cartilage destruction in knee joints (Safranin O staining) [2] | expression levels of SASP factors (IL6, MMP13) and senescence markers (p16, nuclear HMGB1) [2] | osteoarthritis-related pain symptoms / pain indicators [2] | expression of lysosomal ABCA1 (LysoIP immunoblot) (lysosomal ABCA1) | SASP factors (Mmp3, Mmp13, Cxcl1) [4] | further results
1 | CC(C)CCC[C@@H](C)[C@H]1CC[C@H]2[C@@H]3CC=C4C[C@@H](O)CC[C@]4(C)[C@H]3CC[C@]12C [cholesterol] | little effect | significantly increased |  |  |  |  |  | 
2 | COc1ccc(Cl)cc1C(=O)NCCc1ccc(S(=O)(=O)NC(=O)NC2CCCCC2)cc1 [glyburide] |  |  | alleviated | decreased | amelioration | decrease | suppressed | lysosomal cholesterol accumulation [3, 5]: inhibited; SASP activity [1, 5]: inhibited; SASP activation / SASP factor expression induced by probucol ([1]; senescence-induced cells treated with probucol plus test substance): completely suppressed
3 | CC[C@H](C)C(=O)O[C@H]1C[C@@H](C)C=C2C=C[C@H](C)[C@H](CC[C@@H]3C[C@@H](O)CC(=O)O3)[C@H]21 [lovastatin] | without affecting | suppressed |  |  |  |  | suppressed | expression of the cholesterol transporter gene ABCA1 ([1]; senescent cells vs normal proliferating cells (PRO)): also suppressed
4 | CC(C)(Sc1cc(C(C)(C)C)c(O)c(C(C)(C)C)c1)Sc1cc(C(C)(C)C)c(O)c(C(C)(C)C)c1 [probucol] | minimal effect |  | worsened | increased | worsened | further enhanced | upregulated | Osteoarthritis Research Society International (OARSI) grades [2, 6]: higher; dynamic and static weight-bearing capacity [2, 6]: impaired; hindlimb withdrawal threshold [2, 6]: reduced; mTORC1 activation (mTORC1; [7]): not activated; mTORC1 activity (mTORC1; senescence-induced cells, probucol treatment): activation; cholesterol accumulation (lysosomal) ([3]; DNA damage-induced senescent cells (SEN), probucol 10 μM): promoted; SASP (IL1A, IL1B) activation [1, 7]: not activated; SASP activity ([1]; oncogene-induced senescent cells (SEN (OIS)), probucol 10 μM): increased; SASP activity ([1]; senescence-induced cells (SEN), probucol treatment): increased
5 | methyl-β-cyclodextrin [MBCD] |  | reduced |  |  |  |  |  | cholesterol levels ([3]; senescence-induced cells, cholesterol-depleted (MBCD+) conditions): decreased
